The conditions of data set [1]: cited from earlier work.
For data set [2], the system named is adenosine 5′-monophosphate (5′-AMP). The data set can be described thus: Photoreactivity with adenosine 5′-monophosphate upon 365 nm irradiation in N2-saturated buffer. As for the experimental part:
Aqueous phosphate-buffered saline solutions, pH 7.4, containing either 4tUra or 2,4dtUra were prepared with and without 5′-AMP and loaded into 1×1 cm septum-top quartz cuvettes. The concentrations of the thiouracil derivatives and 5′-AMP were […], respectively. These concentrations were chosen in order to favor the bimolecular photoreaction between the thiouracil derivative and 50-AMP, while simultaneously maintaining the absorbance of the solutions within the linear dynamic range limit of the UV-visible spectrophotometer used. All solutions were purged with ultrapure nitrogen for 30 min and kept under constant nitrogen flow throughout the irradiation period. An optical parametric amplifier (TOPAS, Quantronix/Light Conversion) pumped by our Libra laser system (described above) was used for monochromatic (±1 nm) irradiation of the samples. […] Absorbance changes in the thiouracil solutions, with and without 5′-AMP, were monitored periodically using UV-visible spectroscopy (Cary 100 Bio) during irradiation at 365 nm for up to 90 min and while stored in the dark for up to three and a half days.
In order to scrutinize the light-induced reactivity of these sensitizers toward biomolecules, aqueous phosphate-buffered saline solutions of either 4tUra or 2,4dtUra were prepared in the presence of the RNA monomer adenosine 5′-monophosphate (5′-AMP) at a 1:5 molar ratio. […] The experimental conditions were chosen in order to facilitate the extraction of relative photoreaction rates from the changes in the steady-state absorption spectra with irradiation time. […]

A short description of data set [3]: Estimated photosensitization depth into tissue from molar absorptivity cutoff and penetration depth of light. An excerpt:
FIG. 13 illustrates a plot showing molar absorptivity spectra of 4tUra and 2,4dtUra overlaid with the function of the wavelength-dependent penetration depth of light into unpigmented tissue. The ε cutoff is defined by the molar absorptivity of 4tUra at 365 nm; the excitation wavelength typically used in its photosensitization applications.
Importantly, many of the current applications employing 4tUra and other UVA photosensitizers (e.g. psoralen derivatives) use radiation at 365 nm as the excitation source. The use of longer UVA wavelengths reduces direct excitation of other biomolecules, thereby increasing photosensitization efficiency and minimizing unwanted side reactions. However, the requirement of using relatively high concentrations of the sensitizer and/or long irradiation times are two major drawbacks in the current use of 4tUra in photocrosslinking studies as well as in PUVA (psoralen+UVA) photochemotherapies. […] More importantly, 2,4dtUra enables the use of lower-energy excitation wavelengths, as long as 395 nm (see FIG. 13), considering a molar absorptivity cutoff criterion equal to that currently used for 4tUra (see ESI† for a more thorough justification of this cutoff criterion). In other words, the use of 2,4dtUra enables excitation at 395 nm while maintaining the same absorption efficiency and photoreactivity as that of 4tUra at 365 nm. […]

A short description of data set [4]: Singlet oxygen quantum yield by phosphorescence at 1270 nm, thiouracil series. Type of data set: physicochemical. Here is the method:
Solutions of 4tUra, 2,4dtUra, and the singlet oxygen standard (phenalenone; ΦΔ=0.98) were prepared in acetonitrile, each with an absorbance of 0.3 at 355 nm in a 1×1 cm quartz cuvette. The solutions were purged with oxygen for 30 min, followed by the determination of quantum yields from back-toback measurements of the singlet oxygen phosphorescence intensity at 1270 nm. The O2-saturated solutions were excited at 355 nm (Spectra Physics GCR-150-30: 7 ns pulse width) and the phosphorescence at 1270 nm was detected with a NIR sensitive photomultiplier tube (H10330A-45, Hamamatsu).
The singlet oxygen (^1O2) quantum yields of 4tUra and 2,4dtUra were measured by monitoring the characteristic phosphorescence of ^1O2 at 1270 nm with nanosecond time resolution.

Data set [5] can be described thus: Femtosecond to microsecond transient absorption spectroscopy of the thiouracil series (intersystem crossing, triplet yield, triplet decay, triplet-triplet extinction).
Source text: Briefly, 800 nm, 100 fs fundamental pulses were generated with a Ti-Sapphire regenerative amplifier laser system (Libra-HE, Coherent, Inc.: 4.0 W, 1 kHz). The fundamental beam was used to produce pump wavelengths of 320, 335, and 350 nm via an optical parametric amplifier (TOPAS, Quantronix/Light Conversion). Unwanted wavelengths were removed from the pump beam using a reflective wavelength filter and a Glan-Taylor polarizer. A fraction of the remaining fundamental beam was focused into a continuously moving CaF2 plate (2 mm thick) to generate broadband white light probe pulses (320-700 nm). The intensity of the excitation beam was attenuated to 1 mJ per pulse at the sample position. The polarization of the pump beam was randomized before being focused into the sample to overlap with the white light continuum probe at a 3:1 beam diameter ratio. Pump-probe experiments were collected using a Helios spectrometer (Ultrafast Systems, LLC) and a home-made data acquisition software (LabView, National Instruments, Inc.).
Solutions of the 2tUra, 4tUra, and 2,4dtUra derivatives were prepared in aqueous phosphate-buffered saline at pH 7.4. […] Solutions were investigated in 2 mm optical path length quartz cells and the irradiated volume was continuously refreshed by stirring with a Teflon-coated magnetic stir bar. Contributions to the transient data from any putative photoproduct formation were prevented by replacing the solution with fresh stock solution every 5 scans, or before 6% sample degradation (as monitored by a decrease in the steady-state absorbance of the lowest-energy absorption band). The UVA excitation wavelength used was varied depending on the absorption spectrum of the specific thiouracil derivative investigated. For 2tUra, an excitation wavelength of 320 nm was used, whereas 2,4dtUra was excited at 335 and 350 nm, and 4tUra was excited at all three of these UVA wavelengths.
Decay of the triplet state of 4tUra and 2,4dtUra to the ground state was monitored using the same excitation and detection setups but probing with an electronically triggered broadband white light source (Eos, Ultrafast Systems, LLC) that has been conveniently integrated into the Helios spectrometer. This probe source has a spectral window from B375 to 800 nm, a time resolution of about 400 ps, and a temporal window of up to 120 ms. […] Data were collected with the solutions under a constant nitrogen flow, and exciting at 350 nm with 3 mJ per pulse for 10 min, corresponding to less than 5% degradation.
For each data set, between 50 and 100 traces were selected across the entire range of probe wavelengths and globally analyzed in Igor Pro 6.32A (WaveMetrics, Inc.). […] 83 The uncertainties reported for the triplet population lifetimes are twice the standard deviation from the average fitting of at least three independent datasets (i.e., recorded on three different days). Triplet-triplet absorption spectra were extracted from the global fitting analysis.
Data set [6] in a line: Steady-state molar absorptivity spectra, thiouracil series. Format: physicochemical. The note with it: 380 to 400 nm; based on molar absorptivity spectra. Here is the method: Steady-state absorption spectra were measured using a Cary 100 Bio spectrometer. All absorption spectra were background corrected by subtracting the absorption of the neat solvent. Molar absorptivity coefficients were determined from the absorption spectra of serial dilutions of stock solutions with known concentrations.
An important property in the characterization of the photosensitizing potential of the thiouracil series is the determination of their ground-state molar absorptivity spectra. […] The maximum of the lowest-energy absorption band is shifted considerably further to the red (60 nm, 6734 cm^−1) upon sulfur substitution of the oxygen atom at the C4 position compared to when the substitution is made at the C2 position. […] In fact, based on the molar absorptivity spectra, the absorption efficiency of 2,4dtUra at nearvisible wavelengths (380 to 400 nm) is about 27-fold greater than that of 4tUra (see ESI† for details). The ability of these thiouracil derivatives to absorb longer wavelengths of light than uracil facilitates their selective excitation over the canonical DNA and RNA nucleobases. This photophysical property is essential for their prospective use in in vitro and in vivo photosensitizing applications.

Molecules are shown by their SMILES. Entries after “also recorded” stand apart in the source; their conditions may differ. Bounds are passed on as bounds.

For `Sc1ccnc(S)n1` [2,4dtUra, 2,4-dithiouracil], in data set [1], the pKa was 7.4. Also, in data set [2] (365 nm, same concentrations of reactants), the “photoreaction rate with 5′-AMP relative to 4tUra” value is “approximately three times faster; also recorded: threefold greater; also recorded: threefold higher”. In data set [2] (with 5′-AMP, 1:5 molar ratio (24 and 120 mM), 365 nm irradiation, N2-saturated aqueous buffer pH 7.4), the photoreaction rate result is “(1.2±0.2)×10^−9 M s^−1”. For the same compound, the “longest excitation wavelength at molar absorptivity cutoff equal to that of 4tUra at 365 nm” value in data set [3] was no more than 395 nm. Further, the “ΦΔ singlet oxygen quantum yield” value in data set [4] (O2-saturated acetonitrile, 355 nm excitation, phenalenone standard) was 0.49±0.02. In data set [4] (excited to lowest-energy absorption band), the “1O2 yield relative to uracil” value was 3.3 fold. The 1O2 yield result in data set [4] (following UVA excitation) is “ca. 50%”. For the same compound, the “increase in rate of intersystem crossing going from 2tUra” value in data set [5] worked out at 1.6 fold. Besides, the “τISC intersystem crossing lifetime” value in data set [5] (aqueous phosphate-buffered saline solution, pH 7.4) turned out to be 220±40 fs. In addition, in data set [5] (aqueous phosphate-buffered saline solution, pH 7.4, 24 mM solutions, nitrogen-purged, 350 nm excitation), the “κT triplet-state decay rate” value is reported as 4.3 ± 0.9 10^6 s^−1. Further, in data set [5] (aqueous phosphate-buffered saline, pH 5.4), the intersystem crossing lifetime came out at 210±50 fs. Further, the triplet-triplet extinction coefficient in data set [5] (at 600 nm, singlet depletion method) stood at 2500 ± 600 M⁻¹ cm⁻¹. Further, the “absorption efficiency at near-visible wavelengths relative to 4tUra” value in data set [6] is given as “about 27 fold”.
